Assay [1] deals with T1, Aurora-A (Homo sapiens, UniProt O14965).
T1 sequence (O14965 1-403): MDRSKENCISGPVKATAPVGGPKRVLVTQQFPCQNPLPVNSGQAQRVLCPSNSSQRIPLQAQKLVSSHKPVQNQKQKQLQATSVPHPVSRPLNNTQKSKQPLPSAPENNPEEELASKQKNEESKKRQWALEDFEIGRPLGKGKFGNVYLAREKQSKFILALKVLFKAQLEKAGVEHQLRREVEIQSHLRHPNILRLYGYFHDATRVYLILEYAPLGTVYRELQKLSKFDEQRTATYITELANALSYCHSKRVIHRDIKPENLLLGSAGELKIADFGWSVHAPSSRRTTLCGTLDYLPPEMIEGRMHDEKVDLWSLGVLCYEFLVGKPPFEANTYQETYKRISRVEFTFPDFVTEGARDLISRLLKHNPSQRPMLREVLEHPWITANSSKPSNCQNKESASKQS
The assay is described as follows: Filterplate assay for Aurora-A inhibitors. The following applies: read-out: IC50 against Aurora-A. It is filed as biochemical. On the procedure:
Filterplate Assay for Identification and Evaluation of Aurora-A Inhibitors
40 μl master mix of kinase buffer (50 mM Tris pH 7.5, 10 mM NaCl, 2.5 mM MgCL2, 1 mM DTT, 20 μM ATP, 0.025 μCi/μl ^33P-ATP, and 100 μg/ml MBP was added to a 96-well plate followed by addition of 250 ng of Aurora-A enzyme per well. The plate was shaken for approximately 2 min on a flat-bed plate shaker (Wellmix, Denley, UK) and incubated for 2 hours at room temperature. The reaction was stopped by the addition of 30 μl of 2% orthophosphoric acid. The reaction mixture was then transferred and filtered on the 96-well Multi-Screening Filter Plate (MATAH0P00, MILLIPORE), pre-treated with 50 μl per well of 0.5% orthophosphoric acid. The plate was washed twice with 200 μl of 0.5% orthophosphoric acid and vacuum-dried. 25 μl of scintillant (Microscint™20, PerkinElmer) per well was added and the plate was shaken for 10 min. Finally, the plate was re-sealed with TopSealA and the signal from the filter-bound component was read on TopCount-NXT™ (PerkinElmer Life Sciences UK Ltd., Hounslow, UK).

Assay [2] addresses T1, Aurora-A. The assay is described as follows: Flashplate Aurora A enzyme inhibition assay. It counts as biochemical. The following applies: Flashplate assay; IC50 range; read-out: Aurora-A inhibition. The procedure, abridged: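 This is a radiometric Flashplate format: plates were precoated with DTT, and compound (in 2% DMSO) was mixed with kinase buffer (pH 7.5 Tris, MgCl2, NaCl) containing 1 mM MBP, 20 μM ATP and ^33P-ATP. The reaction was started with 250 ng Aurora-A per well and incubated 2 h at RT. It was then stopped by 10 mM sodium pyrophosphate washing, and plates were scintillation-counted.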

In the next assay the test system is HCT116 cells. In words: Cell viability assay (MTT) in HCT116 cell line. It is filed as cell-based. The following applies: Homo sapiens, HCT-116, 72 hrs, IC50 range, read-out: HCT116 cell growth inhibition. The gist of the method:
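MTT read-out (4 hrs, 37 °C, DMSO extraction) following 72 hrs of treatment with 0-50 μM Aurora inhibitor. HCT116 cells were plated a day earlier and tested in triplicate; IC50 derived from the curve.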

A further assay has as its target T2, Aurora-C (Homo sapiens, UniProt Q9UQB9).
T2 sequence (Q9UQB9 1-309): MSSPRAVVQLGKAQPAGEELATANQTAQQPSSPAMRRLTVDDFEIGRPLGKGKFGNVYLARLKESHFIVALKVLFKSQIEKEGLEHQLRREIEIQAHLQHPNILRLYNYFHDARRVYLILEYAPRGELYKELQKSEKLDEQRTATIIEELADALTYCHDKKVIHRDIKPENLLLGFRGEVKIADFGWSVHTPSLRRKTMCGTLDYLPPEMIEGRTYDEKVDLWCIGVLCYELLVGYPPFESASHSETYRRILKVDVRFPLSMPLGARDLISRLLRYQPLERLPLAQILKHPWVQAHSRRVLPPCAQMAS
The assay is described as follows: Flashplate assay for Aurora-C inhibitors. It counts as biochemical. To be noted: read-out: IC50 against Aurora-C. The method, then: (§1) On this assay 384-well Basic Flashplate® (SMP400E, PerkinElmer) as solid assay platform was used. The plates were coated overnight at 4° C. with […] at 100 μg/ml in PBS buffer and used after being washed twice with PBS. 5 μl of compound in 2% DMSO was added to each well followed by 15 μl master mix of kinase buffer (50 mM Tris pH 7.5, 10 mM NaCl, 2.5 mM MgCl2, 1 mM […], 20 μM ATP, and 0.025 μCi/μl ^33P-ATP). Finally, 250 ng per well of Aurora-A enzyme was added. The plate was shaken for approximately 2 min on a flat-bed plate shaker (Wellmix, Denley, UK) and incubated for 2 hours at room temperature. The reaction was stopped by washing the plate twice on a 16-pin wash (ELX50 BioTek Instruments Ltd., Northstar, Bedford, UK) with 10 mM sodium pyrophosphate. The plate was then read on a TopCount-NX™ (PerkinElmer Life Sciences UK Ltd., Hounslow, UK).
(§2) Flashplate® Assay for Identification and Evaluation of Aurora-B and Aurora-C Inhibitors
(§3) For the determination of the inhibitory activity against Aurora-B or Aurora-C, the same conditions were followed in the assay using Aurora-B or Aurora-C enzymes.

In a further assay the target is Aurora-B (Homo sapiens, UniProt Q96GD4). The assay is described as follows: Flashplate assay for Aurora-B inhibitors. The following applies: read-out: IC50 against Aurora-B. It counts as biochemical. The method, then:
as §1, §2, §3

The structures appear in SMILES notation.

The values that follow come from patent publication US8088761B2, “Enzyme inhibitors” (Cancer Research Technology Limited, priority 2005, dated 2012).

Chain of Aurora-B (Q96GD4 whole entry): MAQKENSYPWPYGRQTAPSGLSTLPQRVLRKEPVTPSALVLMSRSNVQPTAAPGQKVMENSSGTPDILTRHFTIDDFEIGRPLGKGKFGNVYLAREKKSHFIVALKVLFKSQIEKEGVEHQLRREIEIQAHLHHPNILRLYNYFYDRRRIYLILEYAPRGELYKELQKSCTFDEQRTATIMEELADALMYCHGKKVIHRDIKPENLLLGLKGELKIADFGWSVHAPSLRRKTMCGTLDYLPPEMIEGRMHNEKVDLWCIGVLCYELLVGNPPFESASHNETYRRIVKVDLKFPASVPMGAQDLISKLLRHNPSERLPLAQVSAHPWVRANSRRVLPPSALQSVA

As for `CN(C)c1ccc(-c2nc3c(N4CCN(CC(=O)Nc5nccs5)CC4)c(Br)cnc3[nH]2)cc1` [Example 2, 2-{4-[6-Bromo-2-(4-dimethylamino-phenyl)-3H-imidazo[4,5-b]pyridin-7-yl]-piperazin-1-yl}-N-thiazol-2-yl-acetamide], the IC50 at Aurora-A [1] is 70 nM; on Aurora-A [2], under 500 nM; with HCT116 cells, under 500 nM; on Aurora-C, 530 nM; on Aurora-B it was 410 nM.
